Source: publication PMC5316400, “Validation of precision-cut liver slices to study drug-induced cholestasis: a transcriptomics approach” (Archives of Toxicology, 2016)

Experiments:
[1] = C max in systemic blood of adult patients after a therapeutic dose; conditions: highest toxic concentration tested in human PCLS vs C max in adult patients
[2] = system: human precision-cut liver slices (PCLS); assay: Transcriptomics of human PCLS: differentially regulated genes; type: cell-based; conditions: fold change of 1.5 and adjusted p value 0.05, 24 h, 60 μM bile acid mix
Procedure: (§1) Precision-cut liver slices of 5 mm diameter and 250 μm thickness were prepared (de Graaf et al. [2010]). At this thickness, full penetration of substrates has been shown. PCLS were made using the Krumdieck tissue slicer (Alabama R&D, Munford, AL, USA) in ice-cold Krebs buffer at pH 7.42, enriched with glucose to a final concentration of 25 mM, saturated with carbogen (95 % O2/5 % CO2). Immediately after the slices were made, they were placed in ice-cold University of Wisconsin organ preservation solution (UW, Dupont Critical Care, Waukegan, IL, USA) and stored on ice until the beginning of the experiment. Slices were pre-incubated individually in 12-well plates in 1.3 ml of Williams Medium E with glutamax-1 (Gibco, Invitrogen, Paisley, Scotland) supplemented with 25 mM D-glucose and 50 μg/ml gentamycin (Gibco, Invitrogen, Paisley, Scotland). In the incubator (Sanyo CO2/O2 Incubator, PANASONIC, Secaucus, NJ, USA), the plates were gently shaken (90 times/min) for 1 h under 80 % O2 and 5 % CO2 atmosphere at 37 °C. This pre-incubation allows the slices to restore their ATP levels. […] The plates were incubated under the same conditions for 24 h. All incubation conditions were carried out in triplicate. Each experiment was performed in slices of 6 different human livers (Table 1). Slices were harvested for ATP assay in 100 mM Tris buffer with 2 mM EDTA and for RNA isolation in RNAlater. The bile acid mix was added to the medium in order to create an environment similar to the physiological concentration in the portal vein. The composition of the serum bile acids was according to Scherer et al. ([2009]). Pilot experiments were performed to find out the non-toxic concentration of the bile acid mix.
(§2) Maxwell® 16 LEV Total RNA purification kit (Promega, The Netherlands) with Maxwell® 16 LEV Instrument was used to isolate RNA from the samples. Immediately after isolation, the RNA quality was assessed by measuring the 260/280 and 260/230 ratios, and the concentration was measured with the ND-1000 spectrophotometer (Fisher Scientific, Landsmeer, The Netherlands). The quality (RIN value) and quantity of the RNA were determined by high-throughput Caliper GX LabChip RNA kit (Caliper).
(§3) Ambion Illumina Total Prep RNA kit was used to transcribe 300 ng RNA to cRNA according to the manufacturer’s instructions. A total of 750 ng of cRNA was hybridized at 58 °C for 16 h to the Illumina HumanHT-12 v4 Expression BeadChips. BeadChips were scanned using Iscan software, and IDAT files were generated (Illumina, San Diego, CA, USA).
(§4) GenomeStudio software (Illumina) was used to read the IDAT files and generate raw expression values. The ArrayAnalysis web service (www.arrayanalysis.org/) was used for further preprocessing the data, which uses lumi R package (Eijssen et al. [2013]). Raw gene expression data were background-corrected (bgAdjust), variance-stabilized (VST) and normalized by quantile normalization. After normalization, the data were corrected for batch differences owing to RNA isolation and hybridization using the ComBat method implemented in the swamp package in R (Lauss et al. [2013]). Differentially expressed genes in slices exposed to the cholestatic drugs in the presence of bile acids versus the slices exposed to vehicle (DMSO) in the presence of bile acids were identified using the unpaired moderated t test in the limma package (Ritchie et al. [2015]). Genes that are regulated with a criterion of fold change of 1.5 (≤ or ≥1.5), and FDR-corrected p value ≤0.05 (Benjamini and Hochberg method) were chosen for pathway analysis. To compare our data with the scarcely available human in vivo data, human in vivo late-stage cholestasis data were downloaded from the Gene Expression Omnibus database (GSE46960).

[3] = system: Genes involved in the FXR pathway; assay: Microarray gene expression in human PCLS exposed to cholestatic drugs: FXR pathway genes; conditions: 100 μM; 24 h; 60 μM bile acid mix
Procedure: as §1, §2, §3, §4

[4] = system: Genes involved in unfolded protein response (UPR); assay: Microarray gene expression in human PCLS exposed to cholestatic drugs: unfolded protein response genes; type: cell-based; conditions: 100 μM; 24 h; 60 μM bile acid mix
Procedure: as §1, §2, §3, §4

[5] = system: Genes involved in hepatic cholestasis pathway; assay: Microarray gene expression in human PCLS exposed to cholestatic drugs: hepatic cholestasis pathway genes; conditions: 100 μM; 24 h; 60 μM bile acid mix
Procedure: as §1, §2, §3, §4

[6] = adult patients, therapeutic dose, systemic blood; no reference given; cited from earlier work

C[C@]12CCC(=O)C=C1CC[C@@H]1[C@@H]2CC[C@@]2(C)[C@H]1CC[C@]2(C)O [MT, methyl testosterone]
toxic concentration used in PCLS study relative to C max [1]: ~ 770 × C max
Number of regulated genes ([2]; 25 μM): 11
Number of regulated genes ([2]; 50 μM): 38
Number of regulated genes ([2]; 100 μM): 233
ABCB4 fold change [3]: −3.6
ABCB11 fold change [3]: −1.7
ABCG5 fold change [3]: −1.6
ABCG8 fold change [3]: −1.4
APOC2 fold change [3]: 1.0
APOC4 fold change [3]: −1.4
APOF fold change [3]: 1.1
BAAT fold change [3]: −1.4
C3 fold change [3]: −2.0
CYP8B1 fold change [3]: 1.1
CYP27A1 fold change [3]: −1.5
FASN fold change [3]: 1.2
FBP1 fold change [3]: 1.2
FETUB fold change [3]: −1.3
FGA fold change [3]: 1.9
ITIH4 fold change [3]: −1.4
KNG1 fold change [3]: −1.7
NR0B2 (SHP) fold change [3]: 1.3
NR1H3 (LXR) fold change [3]: −1.0
NR1H4 (FXR) fold change [3]: −1.2
PON1 fold change [3]: 1.1
RXRA fold change [3]: −1.7
SCARB1 fold change [3]: −1.6
SDC1 fold change [3]: −1.8
SERPINF2 fold change [3]: −1.2
SLC22A7 fold change [3]: −1.5
SLC51B fold change [3]: −2.8
SULT2A1 fold change [3]: 1.7
ATF4 fold change [4]: 1.2
DDIT3 (CHOP) fold change [4]: 2.9
DNAJB9 fold change [4]: 1.3
ERN1 fold change [4]: 3.0
HSPA9 fold change [4]: 1.3
HSPH1 fold change [4]: 1.7
INSIG1 fold change [4]: −1.5
NFE2L2 fold change [4]: −1.1
SYVN1 fold change [4]: 1.1
ABCB4 fold change [5]: −3.6
ABCB11 fold change [5]: −1.2
ABCC3 fold change [5]: −1.8
ABCG5 fold change [5]: −1.7
ABCG8 fold change [5]: −1.4
CYP8B1 fold change [5]: 1.1
CYP27A1 fold change [5]: −1.5
GCGR fold change [5]: −1.1
IL1B fold change [5]: −1.2
IL1RL1 fold change [5]: 3.5
IL1RN fold change [5]: 1.9
IRAK2 fold change [5]: 1.0
JUN fold change [5]: 1.6
NR0B2 fold change [5]: 1.0
NR1H3 fold change [5]: −1.3
NR1H4 fold change [5]: −1.1
PPRC1 fold change [5]: 1.1
RXRA fold change [5]: −1.7
SLC22A7 fold change [5]: −1.1
TNFRSF1B fold change [5]: 1.1
Cmax [6]: 130 nM
